Results as given in ChEMBL document CHEMBL1129939, “Meta-substituted benzofused macrocyclic lactams as zinc metalloprotease inhibitors” (J Med Chem, 1997).

Columns and labels:
Neprilysin = Neprilysin (Homo sapiens, UniProt P08473); assay: Inhibitory concentration required to inhibit neutral endopeptidase (NEP)
Thermolysin = biological target: T1, Thermolysin (Bacillus thermoproteolyticus, UniProt P00800); assay: Inhibitory concentration required to inhibit thermolysin (TLN)
T1 sequence (P00800 whole entry): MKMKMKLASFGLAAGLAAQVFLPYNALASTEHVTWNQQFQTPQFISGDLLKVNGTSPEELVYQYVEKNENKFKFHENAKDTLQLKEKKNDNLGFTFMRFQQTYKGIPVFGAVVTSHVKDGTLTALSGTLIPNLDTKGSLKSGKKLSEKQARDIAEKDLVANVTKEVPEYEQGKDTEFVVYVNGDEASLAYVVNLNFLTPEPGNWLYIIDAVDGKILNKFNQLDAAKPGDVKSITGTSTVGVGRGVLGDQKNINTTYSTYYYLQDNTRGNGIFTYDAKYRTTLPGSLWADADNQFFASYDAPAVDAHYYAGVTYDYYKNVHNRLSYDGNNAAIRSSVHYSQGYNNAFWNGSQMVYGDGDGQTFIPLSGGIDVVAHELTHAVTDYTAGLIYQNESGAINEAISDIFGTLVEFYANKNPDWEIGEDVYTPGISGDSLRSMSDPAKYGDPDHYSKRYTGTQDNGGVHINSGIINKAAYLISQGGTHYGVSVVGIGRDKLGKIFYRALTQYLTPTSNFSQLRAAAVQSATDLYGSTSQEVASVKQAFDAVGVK

[1] = biological target: Angiotensin-converting enzyme (Homo sapiens, UniProt P12821); assay: Inhibitory concentration required to inhibit Angiotensin I converting enzyme (ACE)
Angiotensin-converting enzyme, sequence (P12821 whole entry): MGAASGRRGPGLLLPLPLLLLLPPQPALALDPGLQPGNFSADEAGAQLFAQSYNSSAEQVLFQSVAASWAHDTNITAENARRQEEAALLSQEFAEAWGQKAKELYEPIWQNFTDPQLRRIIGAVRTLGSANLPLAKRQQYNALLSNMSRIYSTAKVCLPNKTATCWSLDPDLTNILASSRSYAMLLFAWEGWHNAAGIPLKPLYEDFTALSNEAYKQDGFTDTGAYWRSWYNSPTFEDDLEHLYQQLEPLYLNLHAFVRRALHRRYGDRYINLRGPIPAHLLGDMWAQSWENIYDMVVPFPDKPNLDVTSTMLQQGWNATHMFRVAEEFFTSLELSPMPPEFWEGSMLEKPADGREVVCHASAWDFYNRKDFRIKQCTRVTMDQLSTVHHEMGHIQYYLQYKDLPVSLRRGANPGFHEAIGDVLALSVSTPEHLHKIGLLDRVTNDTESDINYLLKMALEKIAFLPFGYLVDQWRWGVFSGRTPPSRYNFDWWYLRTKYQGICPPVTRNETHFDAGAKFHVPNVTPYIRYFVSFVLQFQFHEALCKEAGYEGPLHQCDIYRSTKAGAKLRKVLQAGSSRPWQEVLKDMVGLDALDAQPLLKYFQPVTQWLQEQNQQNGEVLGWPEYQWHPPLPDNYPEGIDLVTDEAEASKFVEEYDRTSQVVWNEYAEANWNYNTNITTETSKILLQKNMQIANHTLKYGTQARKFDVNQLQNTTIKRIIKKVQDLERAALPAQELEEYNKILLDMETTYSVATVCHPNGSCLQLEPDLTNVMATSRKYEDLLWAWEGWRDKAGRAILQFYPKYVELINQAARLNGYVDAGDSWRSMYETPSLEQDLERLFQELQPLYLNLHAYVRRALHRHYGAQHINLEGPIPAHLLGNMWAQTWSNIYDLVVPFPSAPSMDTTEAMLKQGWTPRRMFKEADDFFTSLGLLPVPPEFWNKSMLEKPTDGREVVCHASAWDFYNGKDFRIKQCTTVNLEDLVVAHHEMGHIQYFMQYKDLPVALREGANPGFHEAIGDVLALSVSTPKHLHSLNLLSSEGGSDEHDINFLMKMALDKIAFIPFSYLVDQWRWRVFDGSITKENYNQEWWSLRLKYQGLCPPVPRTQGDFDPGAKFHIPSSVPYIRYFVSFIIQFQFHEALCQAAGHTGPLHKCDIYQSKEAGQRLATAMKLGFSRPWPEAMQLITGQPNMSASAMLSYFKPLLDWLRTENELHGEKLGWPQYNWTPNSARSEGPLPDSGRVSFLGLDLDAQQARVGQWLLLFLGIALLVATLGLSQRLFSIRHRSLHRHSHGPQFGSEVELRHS

Neprilysin, sequence (P08473 whole entry): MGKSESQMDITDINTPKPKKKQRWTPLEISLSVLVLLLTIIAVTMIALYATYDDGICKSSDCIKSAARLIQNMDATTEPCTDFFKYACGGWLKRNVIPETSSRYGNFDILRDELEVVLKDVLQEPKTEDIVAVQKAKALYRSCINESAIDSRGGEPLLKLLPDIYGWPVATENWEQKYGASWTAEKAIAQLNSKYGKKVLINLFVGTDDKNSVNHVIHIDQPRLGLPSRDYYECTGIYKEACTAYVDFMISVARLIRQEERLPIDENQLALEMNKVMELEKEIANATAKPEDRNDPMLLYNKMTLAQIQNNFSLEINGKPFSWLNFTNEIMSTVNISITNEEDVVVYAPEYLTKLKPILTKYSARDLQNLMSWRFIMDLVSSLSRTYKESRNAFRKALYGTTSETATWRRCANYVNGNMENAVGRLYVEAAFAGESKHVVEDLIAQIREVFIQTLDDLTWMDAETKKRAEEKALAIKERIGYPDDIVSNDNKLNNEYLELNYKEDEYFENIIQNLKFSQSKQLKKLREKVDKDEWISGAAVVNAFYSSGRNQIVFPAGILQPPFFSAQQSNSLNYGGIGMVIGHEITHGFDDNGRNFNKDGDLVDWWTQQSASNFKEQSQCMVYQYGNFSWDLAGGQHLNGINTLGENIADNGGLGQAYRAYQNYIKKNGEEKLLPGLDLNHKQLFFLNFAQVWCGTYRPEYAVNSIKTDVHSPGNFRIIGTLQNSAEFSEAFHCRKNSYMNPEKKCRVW

Row | Structure (SMILES) | IC50 (Neprilysin) [µM] | IC50 (Thermolysin) [µM] | IC50 [1] [µM]
1 | O=C1N[C@H](C(=O)O)CCCCCCc2ccccc2C[C@H]1CS | 0.224 | 41 | > 10
2 | O=C1N[C@H](C(=O)O)CCCCCc2ccccc2C[C@H]1CS | – | – | 2
3 | O=C1N[C@H](C(=O)O)CCCCc2ccccc2C[C@H]1CS | – | – | > 10
4 | O=C1N[C@@H](C(=O)O)Cc2ccccc2CCCCCCC[C@@H]1CS | – | – | > 10
5 | O=C1N[C@H](C(=O)O)CCCCc2ccccc2C[C@@H]1CS | – | – | > 10
6 | O=C1N[C@H](C(=O)O)CCCCCCc2ccccc2C[C@@H]1CS | 0.027 | 1.8 | > 10
7 | O=C1N[C@H](C(=O)O)CCCCCc2ccccc2C[C@@H]1CS | – | – | 8
8 | O=C1N[C@H](C(=O)O)CCCCCc2cccc(c2)C[C@H]1CS | 1 | > 10 | 1.4
9 | O=C1N[C@@H](C(=O)O)Cc2ccccc2CCCCC[C@@H]1CS | – | – | 6

Stronger by IC50 [1], values ahead:

Row | IC50 (Neprilysin) [µM] | IC50 (Thermolysin) [µM] | IC50 [1] [µM] | Structure (SMILES)
10 | – | – | 0.725 | O=C1N[C@H](C(=O)O)Cc2ccccc2CCCCCC[C@@H]1CS
11 | 0.445 | > 10 | 0.118 | O=C1N[C@H](C(=O)O)CCCCCCc2cccc(c2)C[C@H]1CS
12 | 0.008 | 48 | 0.004 | O=C1N[C@H](C(=O)O)CCCCCc2cccc(c2)C[C@@H]1CS
13 | – | – | 0.47 | O=C1N[C@@H](C(=O)O)Cc2ccccc2CCCCCC[C@@H]1CS
14 | – | – | 0.5 | C[C@H](CS)C(=O)N1Cc2[nH]c3ccccc3c2CC1C(=O)O (some centres not stated)
15 | 0.004 | 34 | 0.175 | O=C1N[C@H](C(=O)O)CCCCCCc2cccc(c2)C[C@@H]1CS
